Results published in patent publication US20200230205A1, “COMPOSITIONS AND METHODS FOR TREATING MYELIN DISORDERS” (CASE WESTERN RESERVE UNIVERSITY, priority 2017, published 2020).

Columns and labels:
[1] = test system: oligodendrocyte progenitor cells (OPCs); assay: CSPG gradient crossing (spot) assay, OPC migration; format: cell-based, mouse
Experimental: CSPG gradients were prepared as described previously (Tom, V. J., et al. Studies on the Development and Behavior of the Dystrophic Growth Cone, the Hallmark of Regeneration Failure, in an In vitro Model of the Glial Scar and after Spinal Cord Injury.). 24-well glass coverslip were coated with poly-L-lysine and nitrocellulose, and a mixture of 700 μg/mL aggrecan (A1960 Sigma) and 10 μg/mL laminin (11243217001 Sigma) spotted on the coated coverslip. After drying, coated coverslips were then incubated with laminin at 37° C. for 3h. Purified OPCs were plated at a density of 10,000/coverslip and cultured in DMEM/F12 medium containing with N2, PDGF (20 ng/ml), FGF (20 ng/ml), NT-3 (5 ng/ml), CNTF (O1 ng/ml), Glutamine (200 mM). Coverslips were stained with CS-56 (C8035, Sigma, 1:500) and O4 antibodies (Hybridoma Core Cleveland Clinic, 1:10). O4-positive cells crossing the aggrecan border were counted for each spot. For CSPG gradient quantification, 1×10^6 OPCs were plated per well on PLL, 1 μg/mL laminin, and 2 μg/mL aggrecan coated 6-well plates. OPCs treated with vehicle, 2.5 μM ISP, or 2.5 μM SISP for 2 days at 37° C. CM was harvested and incubated with freshly made spots. Spots were incubated with CM for 2 days at 37° C. then stained with CS-56 and laminin (L9393, Sigma, 1:1000) antibodies and consistently imaged. Using ImageJ software (NIH), pixel intensities of the CS-56 or laminin spot rims were quantified using the same ROI. For cultured spinal cord explant, the spinal cords of cervical and thoracic of P1 mouse pups were chopped into 1-2 mm tissue pieces and transferred to the coverslip. Explants were cultured in DMEM/F12 medium with 15% FBS (Hyclone), O1 ng/ml PDGF (Sigma) and N2 supplement (Invitrogen). For ISP treatment, 2.5 uM ISP was added to the media at the time of plating. 25 μM GM6001 (2983, Tocris), 100 nM MMP-2 inhibitor (444244, Calbiochem), and/or 2.5 μM ISP or SISP was used.

[2] = test system: LPC-demyelinated mice; assay: Lysolecithin (LPC)-induced focal demyelination of the spinal cord in mice; format: in vivo, mouse
Experimental: 12-week-old C57BL/6 male mice were anaesthetized using isoflurane and a laminectomy was performed. […] of 1% LPC was infused into the dorsal column between T11 and T12 spinal cord at a rate of 0.25 μl/min. The needle was removed after a delay of 5 min to minimize back flow and the lesion closed. […] The mice were euthanized at day 7, 14 and 21 after the laminectomy separately. Spinal cords were dissected for further western blot, histology and ultrastructural analysis. Control animals received an equivalent injection of saline, and tissues were collected according to the same paradigm. […] Lesion sizes were determined by staining of serial sections with eriochrome cyanine staining.
For spinal cord sections, 20 μm coronal sections were incubated in LFB solution in 56° C. overnight and then rinsed sequentially with 95% alcohol and distilled water. The sections were then in 0.1% lithium carbonate solution and followed dehydration with a series of gradated ethanol, cleared with Histoclear and mounted. A set of serial matched sections were imaged and analyzed. Images (5 to 6 sections/animal) were captured under light microscope. The demyelinated areas (lack of LFB staining) were quantified using ImageJ software. For EAE sections, demyelinated areas were measured and represented as a percentage of total area of spinal cord. For sections of LPC model, lesion volumes were calculated by the lesion area from serial sections throughout the entire lesion based on the equation for volume of cylinder (V=lesion area×length of lesion).
Mice were anesthetized with avertin and perfusion with PBS and 4% paraformaldehyde (PFA). Brain or spinal cord were dissected and post-fixed in 4% PFA overnight at 4° C. and equilibrated in 20% sucrose. 20 μm-thick sections were pretreated with Reveal Decloaker Solution (RV 1000M, Biocare Medical) for antigen retrieval according to the manufacturer's instructions. […] For each staining, at least 3 individual animals/group were examined and images were captured with a Leica DFC500 fluorescence microscope. Staining was quantified using Image J software (US National Instisutes of Health, USA). Fluorescence intensity was calculated as percentages of the mean value of the naïve controls.
For ultrastructural analyses of myelination, anesthetized animals were perfused with 2% glutaraldehyde/4% paraformaldehyde in 0.1 M sodium carcodylate buffer, PH7.4 (Electron Microscopy Sciences). Lesioned areas of the LPC or EAE-induced spinal cords from ISP-treated or control animals were dissected and post-fixed in 1% OsO4 for 2 hrs. Coronal sections ([…]) of spinal cord or brain containing corpus callosum were prepared (Leica, Vibratome), dehydrated, stained with saturated uranyl acetate and embedded in a Poly/Bed812 resin (Polysciences Inc.). The 1 μm-thick sections were cut and stained with toluidine blue, and matched areas were selected for EM analysis. For ultrastructure analysis, ultrathin sections (0.1 μm) were cut and visualized using an electron microscope (JEOL100CX) at 80 kV. G-ratios were calculated from at least 50-100 randomly selected myelinated axons by measuring the myelin thickness of the inner and outer diameter of the myelin sheath.

[3] = 14 dpl, given together with ISP, vs LPC+ISP
[4] = 7 dpl, lesion epicenter, ISP started immediately

Molecule | OPC entry into the CSPG-rich area ([1]; 25 μM GM6001 or 100 nM OA-Hy, even in the presence of ISP) | CS56 immunoreactivity [2, 3] | Olig2+ OPCs in the lesion epicenter [2, 3] | lesion volume, eriochrome cyanine myelin staining ([2]; 18 dpl, MMP-2 inhibition without ISP, vs vehicle control) | effect on ISP-enhanced remyelination (lesion volume) ([2]; 18 dpl, given together with ISP) | O4+ OPCs crossing the CSPG barrier ([1]; purified OPCs, 2.5 μM ISP vs control) | Olig2+/Ki67+ cells ([2]; 7 dpl vs vehicle) | percentage of Olig2+ OPCs in lesions ([2]; 7 dpl vs vehicle) | lesion volume (LFB) ([2]; 7 dpl, ISP 20 μg/day subcutaneous from 1 day post LPC, vehicle 1.508±0.069) | CSPG expression (CS56, Cat301) ([2]; 7 dpl, ISP started immediately upon LPC injection, 7 days) | MBP myelin protein expression vs control [2, 4] | activated microglia (Iba1) vs control [2, 4] | reactive astrocytes (GFAP) vs control [2, 4] | MBP expression, western blot ([2]; 14 dpl) | CSPGs (CS56 and Cat301) immunostaining ([2]; 14 dpl vs controls) | lesion volume (LFB) ([2]; 14 dpl, vehicle 1.035±0.06) | lesion volume (LFB) ([2]; 21 dpl, vehicle 0.738±0.027) | percentage of CC1+ oligodendrocytes in lesions ([2]; LPC-injected animals, 14 dpl) | MMP-2 expression in the LPC-injected site (immunohistochemistry, western blot) ([2]; spinal cord, vs LPC vehicle)
CCCCCCCC/C=C\CCCCCCCC(=O)NO [OA-Hy, reference compound] | effectively halted OPC entry | concomitant increase in CS56 immunoreactivity | decreased accumulation | increased the lesion volume | attenuated the enhanced remyelinating effects of ISP | – | – | – | – | – | – | – | – | – | – | – | – | – | –
GRKKRRQRRRCDMAEHMERLKANDSLKLSQEYESI [ISP] | – | – | – | – | – | significantly induced greater O4+ OPC migration | no differences | significantly increased | 1.535±0.058 mm^3 | significantly reduced | no change | no change | no change | increased expression of MBP | quicker reduction of CSPGs | 0.613±0.043 mm^3 | 0.2±0.041 mm^3 | significantly enhanced | markedly enhanced
